According to article PMC6857051, “Proliferative regulation of alveolar epithelial type 2 progenitor cells by human Scnn1d gene” (Theranostics, 2019):

Experiments:
[1] = test system: ENaC activity in mouse AT2 monolayers; test: Ussing chamber short-circuit current, mAT2 monolayers; type: cell-based; details: mAT2 (and MTE) monolayers, Isc, Figure 5D
Procedure: Mouse AT2 cell isolation and monolayer cultures. Mouse AT2 cells were isolated from both wt and Scnn1d Tg/Cre strains with C57BL/6 genetic background with a modified protocol of a previous publication, [72]. Briefly, lungs of euthanized mice were removed and incubated in dispase for 45 minutes, and then were gently teased and incubated in DMEM/F-12 + 0.01% DNase I for 10 minutes. Cells were passed through a serial of Nitex filters (100, 40, 30, and 10 microns; Corning, USA) and centrifuged at 300 × g for 10 minutes. Resuspended cells were incubated with biotin conjugated anti-CD16/32, CD45 and CD119 antibodies (BD Pharmingen, USA) and then incubated with streptavidin-coated magnetic particles. The cells were then incubated for 2 h at 37 °C in a plastic culture dish precoated with mouse IgG to remove fibroblasts. Upon passing the request for both viability (> 90%) and purity assays (> 94%) (Figures S7 & S8), mouse laminin 1 precoated transwells (Corning Costar, USA) were seeded with AT2 cells (10^6 cells/cm^2). […] Transepithelial resistance (RT) and potential difference (ET) were measured with an epithelial voltohmmeter (World Precision Instrument, USA). IEQ values were calculated as the ratio of ET / RT values. […] The transmonolayer potential was short circuited to 0 mV, and Isc level was measured with an epithelial voltage clamp (VCC-MC8, Physiologic Instruments). […]

[2] = test system: alveolar fluid clearance in human lungs; test: Alveolar fluid clearance in human lungs ex vivo; details: n=5 per group, 60 minutes after instillation
From the text: Alveolar fluid clearance in human lungs ex vivo. The studies followed the guide of the […] and were approved by the Ethics Committee of the China Medical University (CMU) at Shenyang, China. All patients were given oral and written informed consent forms. Human lung tissues were obtained during pulmonary resection surgeries with lung cancer at the First Affiliated Hospital of CMU. There were no fibrous or emphysematous lesions as assessed by preoperative chest CT scanning. Human lung segments were prepared, and AFC measurements were done as described previously. Briefly, the segmental bronchus was occluded by a 10-Fr. balloon catheter immediately after removal of the lung, and occluded segments that were located furthest away from the focus of tumor were chosen. A warmed physiologic saline solution (20 ml; 37°C) containing 5% BSA with or without amiloride (1 mM) was instilled into the distal air spaces through the catheter. After instillation, the lungs were inflated with 100% oxygen at an airway pressure of 7 cm H2O. Alveolar fluid was aspirated 60 minutes after instillation. […] AFC values were calculated as follows: AFC = [(Vi - Vf)/Vi] × 100, where V is the volume of the instilled albumin solution (i) and the final alveolar fluid (f). […]

[3] = test system: δ802- and γ-ENaC subunits; test: Immunoblot of cleavage of tagged δ802- and γ-ENaC subunits in oocytes by serine proteases; type: biochemical, human; details: 10 μg/ml, 45 minutes at room temperature
Procedure: Figure 3 Activation of δ802-containing ENaC channels by serine proteases. (A) Activation of δ802βγ ENaC expressed in Xenopus oocytes by two-chain urokinase plasminogen activator (tc-uPA). ENaC activity was measured at the membrane potential of -100 mV at defined time points post incubation with 10 μg/ml tc-uPA. n = 9-15. mean ± s.e.m. * P<0.05 vs data at the zero minute (min). (B) Time course of stimulatory effects of plasmin on δ802βγ-ENaC activity. n=12. * P<0.05. (C) Identification of subunit responsible for plasmin activation. Fold of amiloride-sensitive current (ASI) of ENaC-associated current in the presence of plasmin over that in the absence of plasmin was computed for oocytes expressing δ802+β+γ (δβγ), δ802 alone (δ), δ802+β(δβ), and δ802+γ (δγ). n = 12-15. * P<0.05. (D) Inhibitory effects of α-13 peptide on δ802αβγ- (δαβγ) and αβγ-ENaC activity post treatment of plasmin and aprotinin. Currents (I) at -100 mV were compared in the absence of amiloride (basal, open bar), presence of α-13 peptide (α13, closed bar), and amiloride (amil, grey bar). n=5. * P<0.05 vs basal currents, & P < 0.05 vs those in the presence of α-13 peptide. (E) Fractions of α-13 sensitive currents in cells pre-treated with plasmin and aprotinin. n=8. Control, without pre-treatment. (F) Cleavage of V5-tagged δ802- and γ-ENaC subunits by serine proteases. NI, non-injected oocytes as negative controls for ENaC expression. Oocytes incubated with chymotrypsin (CT, 10 μg/ml), plasmin (PI, 10 μg/ml) for 45 minutes at room temperature. Cells treated with the same volume of saline (‑) were controls for serine proteases.

N=C(N)NC(=O)c1nc(Cl)c(N)nc1N [amiloride]
apparent ki value of amiloride, controls versus δ802-expressing cells [1]: much lesser in controls

Ac-LRGTLPHPLQRLR-NH2 [α-13 peptide]
fraction of total alveolar fluid clearance inhibited [2]: Approximately half

B1: plasmin: serine protease of the plasmin(ogen) signal pathway for fibrinolysis (protein, UniProt P00747 20-580; P00747 581-810, looked up)
Plasmin heavy chain A: EPLDDYVNTQGASLFSVTKKQLGAGSIEECAAKCEEDEEFTCRAFQYHSKEQQCVIMAENRKSSIIIRMRDVVLFEKKVYLSECKTGNGKNYRGTMSKTKNGITCQKWSSTSPHRPRFSPATHPSEGLEENYCRNPDNDPQGPWCYTTDPEKRYDYCDILECEEECMHCSGENYDGKISKTMSGLECQAWDSQSPHAHGYIPSKFPNKNLKKNYCRNPDRELRPWCFTTDPNKRWELCDIPRCTTPPPSSGPTYQCLKGTGENYRGNVAVTVSGHTCQHWSAQTPHTHNRTPENFPCKNLDENYCRNPDGKRAPWCHTTNSQVRWEYCKIPSCDSSPVSTEQLAPTAPPELTPVVQDCYHGDGQSYRGTSSTTTTGKKCQSWSSMTPHRHQKTPENYPNAGLTMNYCRNPDADKGPWCFTTDPSVRWEYCNLKKCSGTEASVVAPPPVVLLPDVETPSEEDCMFGNGKGYRGKRATTVTGTPCQDWAAQEPHRHSIFTPETNPRAGLEKNYCRNPDGDVGGPWCYTTNPRKLYDYCDVPQCAAPSFDCGKPQVEPKKCPGR
Plasmin light chain B: VVGGCVAHPHSWPWQVSLRTRFGMHFCGGTLISPEWVLTAAHCLEKSPRPSSYKVILGAHQEVNLEPHVQEIEVSRLFLEPTRKDIALLKLSSPAVITDKVIPACLPSPNYVVADRTECFITGWGETQGTFGAGLLKEAQLPVIENKVCNRYEFLNGRVQSTELCAGHLAGGTDSCQGDSGGPLVCFEKDKYILQGVTSWGLGCARPNKPGVYVRVSRFVTWIEGVMRNN
modifications: Plasmin
notes: serine protease of the plasmin(ogen) signal pathway for fibrinolysis
cleavage of γ-ENaC [3]: catalyzed | cleavage of δ802 subunit [3]: Neither chymotrypsin nor plasmin nor endogenous furin cleaved the δ802 subunit
